Reference: patent US7294648B2, “Anthranyl derivatives having an anticholecystokinin activity (anti-cck-1), a process for their preparation, and pharmaceutical use thereof” (Rottapharm S.p.A., priority 2002, dated 2007)

How the values were obtained:
[1] = molecular target: T1, CCK-1 receptors (Rattus norvegicus, UniProt P30551); experiment: Inhibition of binding of [125I]-BH-CCK-8 to isolated rat pancreatic acini; conditions: for IC50: 30 minutes at 37° C., at least 3 experiments, read-out: IC50, inhibition of binding of [125I]-BH-CCK-8 to isolated rat pancreatic acini
T1 construct: The pancreatic acini obtained from the outbred male rat pancreas of the Sprague Dawley strain; from tissue; host or cells: isolated pancreatic acini of male Sprague Dawley rats
T1 sequence (P30551 1-444): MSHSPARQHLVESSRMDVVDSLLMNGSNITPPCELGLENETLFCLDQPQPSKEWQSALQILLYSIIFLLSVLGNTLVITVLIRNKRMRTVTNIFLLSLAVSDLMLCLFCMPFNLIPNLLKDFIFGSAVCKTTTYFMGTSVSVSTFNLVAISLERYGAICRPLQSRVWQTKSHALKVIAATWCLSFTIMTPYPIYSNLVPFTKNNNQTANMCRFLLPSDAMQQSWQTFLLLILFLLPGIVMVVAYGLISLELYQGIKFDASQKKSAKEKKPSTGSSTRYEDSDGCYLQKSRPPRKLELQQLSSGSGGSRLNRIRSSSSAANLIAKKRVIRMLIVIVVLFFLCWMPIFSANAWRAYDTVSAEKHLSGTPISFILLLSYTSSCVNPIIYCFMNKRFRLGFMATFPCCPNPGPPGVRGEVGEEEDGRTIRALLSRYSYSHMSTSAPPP
Experimental: The pancreatic acini obtained from the outbred male rat pancreas of the Sprague Dawley strain, were incubated in the presence of radioactive tracers and the compound studied for 30 minutes at 37° C. After having discarded the supernatant, the radioactivity associated with the pellet was determined with a liquid scintillator. The specific binding was determined as the difference between the binding in the absence and in the presence of CCK-8, 1.10^−6M. […] The values of IC50 reported were calculated with the […] of a set of at least 3 experiences for each compound studied.

[2] = molecular target: T2, CCK-2 receptor (Cavia porcellus, UniProt H0VZC5); experiment: Inhibition of the binding of [125I]-BH-CCK-8 to the cortical membrane of guinea pigs; set-up: species or system guinea pig; conditions: 120 minutes at 25° C.; 25 pM marked binder; at least 3 tests
T2 construct: The incubation of the cerebral membranes together with the radioactive tracers and the compounds under study; from tissue; host or cells: cerebral cortex membranes of male albino Hartley guinea pigs
T2 sequence (H0VZC5 1-426): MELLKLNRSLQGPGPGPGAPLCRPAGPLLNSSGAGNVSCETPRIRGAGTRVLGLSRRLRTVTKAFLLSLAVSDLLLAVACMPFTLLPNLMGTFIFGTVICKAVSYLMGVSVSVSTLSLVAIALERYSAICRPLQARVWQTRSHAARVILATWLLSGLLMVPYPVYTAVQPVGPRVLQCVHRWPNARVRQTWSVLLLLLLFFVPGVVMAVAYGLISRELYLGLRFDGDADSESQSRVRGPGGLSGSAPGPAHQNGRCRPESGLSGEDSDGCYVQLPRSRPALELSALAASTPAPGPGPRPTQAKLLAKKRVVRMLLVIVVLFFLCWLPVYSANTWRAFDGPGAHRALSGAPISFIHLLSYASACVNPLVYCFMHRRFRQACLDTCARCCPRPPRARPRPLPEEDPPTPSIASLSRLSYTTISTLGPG
Experimental: (§1) For this purpose binding tests were performed on cerebral cortex of male albino guinea pigs outbred from the Hartley strain, using as marked binder the [^125I]-BH-CCK-8 sulphate, according to the procedure described by Makovec F. [J. Med. Chem. 35, (1992),28].
(§2) The incubation of the cerebral membranes together with the radioactive tracers and the compounds under study was effected on multi-well plates for 120 minutes at 25° C. Each well contained membrane corresponding to about 0.5 mg of proteins/ml and 25 pM of marked binder in a total volume of 250 micro litres. The specific binding was determined as the difference between the binding in the absence and in the presence of CCK-8, 1.10^−6M. At the end of the incubation a rapid filtration of the plate was performed under vacuum and the radioactivity of the individual filters extracted from the wells was measured with a γ-emission counter. The results obtained are shown in Table 3, in which the tested compounds are indicated, the IC50 calculated with the regression method on a set of at least 3 tests for each compound studied and an index derived from the ratio of the affinity obtained for the two types of receptor CCK-2 and CCK-1.

[3] = system: CCK-2 receptor; experiment: as above; set-up: species or system guinea pig; conditions: IC50 CCK-2 (guinea pig cortex) / IC50 CCK-1 (rat pancreatic acini, Table 2)
Experimental: as §1, §2

| SMILES | IC50 [1] | other results |
| --- | --- | --- |
| O=C(Nc1ccccc1C(=O)NC(Cc1ccccc1)C(=O)O)c1cc2ccccc2[nH]1 (racemic) [Compound 1, 2 (R,S)-{2-[(1H-indol-2-carbonil)amino]-benzoilamino}-3-phnyl-propionic acid] | 0.24 µM | – |
| O=C(Nc1ccccc1C(=O)N[C@H](Cc1ccccc1)C(=O)O)c1cc2ccccc2[nH]1 [Compound 2, 2 (R)-{2-[(1H-indol-2-carbonyl)amino]-benzoylamino}-3-phenyl-propionic acid] | 0.11 µM | – |
| O=C(Nc1ccccc1C(=O)N[C@@H](Cc1ccccc1)C(=O)O)c1cc2ccccc2[nH]1 [Compound 3, 2(S)-{2-[(1H-indol-2-carbonyl)amino]-benzoylamino}-3-phenyl-propionic acid] | 7.13 µM | – |
| O=C(Nc1ccc(Cl)cc1C(=O)NC(Cc1ccccc1)C(=O)O)c1cc2ccccc2[nH]1 (stereo not shown) [Compound 4] | 0.41 µM | – |
| Cn1c(C(=O)Nc2ccccc2C(=O)NC(Cc2ccccc2)C(=O)O)cc2ccccc21 (stereo not shown) [Compound 5] | 0.17 µM | – |
| O=C(Nc1ccccc1C(=O)NC(Cc1ccccc1)C(=O)O)c1cc2cc(F)ccc2[nH]1 (stereo not shown) [Compound 6] | 0.06 µM | IC50 [2]: 10.6 µM; index derived from the ratio of the affinity obtained for the two types of receptor CCK-2 and CCK-1 [3]: 176.6 |
| O=C(Nc1ccccc1C(=O)NC(Cc1ccccc1)C(=O)O)c1cc2ccc(F)cc2[nH]1 (stereo not shown) [Compound 7] | 0.16 µM | – |
| O=C(Nc1ccccc1C(=O)NC(Cc1ccccc1)C(=O)O)c1cc2cccc(F)c2[nH]1 (stereo not shown) [Compound 8] | 0.09 µM | – |
| O=C(Nc1ccccc1C(=O)NC(Cc1ccccc1)C(=O)O)c1cc2ccccc2o1 (stereo not shown) [Compound 9] | 0.52 µM | – |
| O=C(Nc1ccccc1C(=O)NC(Cc1ccccc1)C(=O)O)c1cc2ccccc2s1 (stereo not shown) [Compound 10] | 0.78 µM | – |
| Cc1ccccc1CC(NC(=O)c1ccccc1NC(=O)c1cc2ccccc2[nH]1)C(=O)O (stereo not shown) [Compound 11] | 0.16 µM | – |
| Cc1ccc(CC(NC(=O)c2ccccc2NC(=O)c2cc3ccccc3[nH]2)C(=O)O)cc1 (stereo not shown) [Compound 12] | 0.37 µM | – |
| O=C(Nc1ccccc1C(=O)NC(Cc1ccccc1Cl)C(=O)O)c1cc2ccccc2[nH]1 (stereo not shown) [Compound 13] | 0.27 µM | – |
| O=C(Nc1ccccc1C(=O)NC(Cc1cccc(Cl)c1)C(=O)O)c1cc2ccccc2[nH]1 (stereo not shown) [Compound 14] | 0.28 µM | – |
| O=C(Nc1ccccc1C(=O)NC(Cc1c(Cl)cccc1Cl)C(=O)O)c1cc2ccccc2[nH]1 (stereo not shown) [Compound 15] | 1.41 µM | – |
| COc1cccc(CC(NC(=O)c2ccccc2NC(=O)c2cc3ccccc3[nH]2)C(=O)O)c1 (stereo not shown) [Compound 16] | 0.24 µM | – |
| O=C(Nc1ccccc1C(=O)NC(Cc1ccccc1[N+](=O)[O-])C(=O)O)c1cc2ccccc2[nH]1 (stereo not shown) [Compound 17] | 0.16 µM | – |
| O=C(Nc1ccccc1C(=O)NC(Cc1ccc([N+](=O)[O-])cc1)C(=O)O)c1cc2ccccc2[nH]1 (stereo not shown) [Compound 18] | 0.43 µM | – |
| O=C(Nc1ccccc1C(=O)NC(Cc1ccc(F)cc1)C(=O)O)c1cc2ccccc2[nH]1 (stereo not shown) [Compound 19] | 0.18 µM | – |
| O=C(Nc1ccccc1C(=O)N[C@@H](CCc1ccccc1)C(=O)O)c1cc2ccccc2[nH]1 [Compound 22] | 0.19 µM | – |
| O=C(Nc1ccccc1C(=O)NC(CCCc1ccccc1)C(=O)O)c1cc2ccccc2[nH]1 (stereo not shown) [Compound 24] | 0.09 µM | – |
| Cc1ccccc1CCC(NC(=O)c1ccccc1NC(=O)c1cc2ccccc2n1C)C(=O)O (stereo not shown) [Compound 27] | 0.03 µM | – |
| O=C(Nc1ccccc1C(=O)NC(CCc1ccccc1[N+](=O)[O-])C(=O)O)c1cc2ccccc2[nH]1 (stereo not shown) [Compound 28] | 0.12 µM | – |
| O=C(Nc1ccccc1C(=O)NC(CCc1ccc([N+](=O)[O-])cc1)C(=O)O)c1cc2ccccc2[nH]1 (stereo not shown) [Compound 29] | 0.12 µM | – |

| SMILES | IC50 [1] | other results |
| --- | --- | --- |
| COc1cccc(CCC(NC(=O)c2ccccc2NC(=O)c2cc3ccccc3[nH]2)C(=O)O)c1 (stereo not shown) [Compound 31] | 0.01 µM | IC50 [2]: 3.4 µM; index derived from the ratio of the affinity obtained for the two types of receptor CCK-2 and CCK-1 [3]: 340 |
| COc1ccccc1CCC(NC(=O)c1ccccc1NC(=O)c1cc2cc(F)ccc2[nH]1)C(=O)O (stereo not shown) [Compound 32] | 0.009 µM | affinity for the CCK-1 receptors of the pancreatic acini of rat, in words ([1]; summary of Table 2): nanomolar level; IC50 [2]: 5.68 µM; index derived from the ratio of the affinity obtained for the two types of receptor CCK-2 and CCK-1 [3]: 631.1 |
| O=C(Nc1ccccc1C(=O)NC(C(=O)O)c1ccccc1)c1cc2ccccc2[nH]1 (stereo not shown) [Compound 33] | 0.26 µM | – |
| CC(NC(=O)c1ccccc1NC(=O)c1cc2ccccc2[nH]1)C(=O)O (stereo not shown) [Compound 34] | 1.96 µM | – |
| CCC(NC(=O)c1ccccc1NC(=O)c1cc2ccccc2n1C)C(=O)O (stereo not shown) [Compound 35] | 3.08 µM | – |
| CCCC(NC(=O)c1ccccc1NC(=O)c1cc2ccccc2n1C)C(=O)O (stereo not shown) [Compound 36] | 0.21 µM | – |
| CCCCC(NC(=O)c1ccccc1NC(=O)c1cc2ccccc2n1C)C(=O)O (stereo not shown) [Compound 37] | 0.17 µM | – |
| CCCCCC(NC(=O)c1ccccc1NC(=O)c1cc2ccccc2[nH]1)C(=O)O (stereo not shown) [Compound 38] | 0.01 µM | IC50 [2]: > 30 µM; index derived from the ratio of the affinity obtained for the two types of receptor CCK-2 and CCK-1 [3]: >3000 |
| CCCCCCC(NC(=O)c1ccccc1NC(=O)c1cc2ccccc2[nH]1)C(=O)O (stereo not shown) [Compound 39] | 0.02 µM | IC50 [2]: > 30 µM; index derived from the ratio of the affinity obtained for the two types of receptor CCK-2 and CCK-1 [3]: >1500 |
| CCCCCCCC(NC(=O)c1ccccc1NC(=O)c1cc2ccccc2[nH]1)C(=O)O (stereo not shown) [Compound 40] | 0.24 µM | – |
| CC(C)C(NC(=O)c1ccccc1NC(=O)c1cc2ccccc2[nH]1)C(=O)O (stereo not shown) [Compound 41] | 0.2 µM | IC50 [2]: 27.4 µM; index derived from the ratio of the affinity obtained for the two types of receptor CCK-2 and CCK-1 [3]: 137 |
| CC(C)CC(NC(=O)c1ccccc1NC(=O)c1cc2ccccc2[nH]1)C(=O)O (stereo not shown) [Compound 42] | 0.06 µM | – |
| CC(C)CCC(NC(=O)c1ccccc1NC(=O)c1cc2ccccc2[nH]1)C(=O)O (stereo not shown) [Compound 43] | 0.08 µM | – |
| CC(C)CCCC(NC(=O)c1ccccc1NC(=O)c1cc2ccccc2[nH]1)C(=O)O (stereo not shown) [Compound 44] | 0.04 µM | – |
| CC(C)CCCCC(NC(=O)c1ccccc1NC(=O)c1cc2ccccc2[nH]1)C(=O)O (stereo not shown) [Compound 45] | 0.14 µM | – |
| CCC(CC)CC(NC(=O)c1ccccc1NC(=O)c1cc2ccccc2[nH]1)C(=O)O (stereo not shown) [Compound 46] | 0.03 µM | IC50 [2]: 2.67 µM; index derived from the ratio of the affinity obtained for the two types of receptor CCK-2 and CCK-1 [3]: 89 |
| O=C(Nc1ccccc1C(=O)NC(CC1CCCCC1)C(=O)O)c1cc2ccccc2[nH]1 (stereo not shown) [Compound 48] | 0.02 µM | IC50 [2]: 1.22 µM; index derived from the ratio of the affinity obtained for the two types of receptor CCK-2 and CCK-1 [3]: 61 |
| O=C(Nc1ccccc1C(=O)NC(CCC1CCCCC1)C(=O)O)c1cc2ccccc2[nH]1 (stereo not shown) [Compound 49] | 0.04 µM | – |
| O=C(Nc1ccccc1C(=O)NC(CCCC1CCCCC1)C(=O)O)c1cc2ccccc2[nH]1 (stereo not shown) [Compound 50] | 0.17 µM | – |
| CSCCC(NC(=O)c1ccccc1NC(=O)c1cc2ccccc2[nH]1)C(=O)O (stereo not shown) [Compound 51] | 0.04 µM | – |
| O=C(Nc1ccccc1C(=O)NC(CSc1ccccc1)C(=O)O)c1cc2ccccc2[nH]1 (stereo not shown) [Compound 52] | 0.62 µM | – |
| O=C(Nc1ccccc1C(=O)NC(CSC12CC3CC(CC(C3)C1)C2)C(=O)O)c1cc2ccccc2[nH]1 (stereo not shown) [Compound 53] | 0.03 µM | – |
| O=C(NC(Cc1ccccc1)C(=O)O)c1ccccc1NC(=O)c1c[nH]c2ccccc12 (stereo not shown) [Compound 55] | 1.95 µM | – |
